Here are results for 1 compound from patent US4159263A, “(D-Ala^5)-somatostatin and analogues thereof” (American Home Products Corporation, priority 1977, dated 1979).

One test has as its system growth hormone. The test can be described thus: Arginine-stimulated growth hormone secretion in Nembutal-anesthetized rats, radioimmunoassay of blood. Type of test: in vivo. Particulars: for GH: albino male rats, subcutaneous. The text has this: (§1) The results of the assay are as follows:
In another test the test system is glucagon. In words: Arginine-stimulated glucagon secretion in Nembutal-anesthetized rats, radioimmunoassay of blood. Particulars: for Glucagon: albino male rats, subcutaneous.
A further test relates to insulin. In words: Arginine-stimulated insulin secretion in Nembutal-anesthetized rats, radioimmunoassay of blood. Type of test: in vivo. Particulars: for Insulin: albino male rats, subcutaneous.
Text: as §1

Positions of bridges follow the written chain, without caps; N, C: chain ends. Non-standard residues stand in square brackets, D forms with d. Residues, ends and D or L forms follow the SMILES beside them.

Procedure for glucagon: Albino male rats were administered Nembutal intraperitoneally at a dose of 50 milligrams per kilogram. Fifteen minutes later a subcutaneous injection of the test compound or physiological saline was administered. Ten minutes later 0.5 milliliters of arginine (300 milligrams per milliliter, pH 7.2) is injected into the heart. Five minutes after receipt of the arginine the rats are decapitated and blood is collected into trasylol-EDTA. An appropriate aliquot was assayed for growth hormone, insulin and glucagon by radioimmunoassay.

Regarding `C[C@H](N)C(=O)NCC(=O)N[C@H]1CSSC[C@@H](C(=O)O)NC(=O)[C@H](CO)NC(=O)[C@H]([C@@H](C)O)NC(=O)[C@H](Cc2ccccc2)NC(=O)[C@H]([C@@H](C)O)NC(=O)[C@H](CCCCN)NC(=O)[C@@H](Cc2c[nH]c3ccccc23)NC(=O)[C@H](Cc2ccccc2)NC(=O)[C@H](Cc2ccccc2)NC(=O)[C@@H](C)NC(=O)[C@H](CCCCN)NC1=O` [L-Alanylglycyl-L-cysteinyl-L-lysyl-D-alanyl-L-phenylalanyl-L-phenylalanyl-D-tryptophyl-L-lysyl-L-threonyl-L-phenylalanyl-L-threonyl-L-seryl-L-cysteinecyclic (3→14)-disulfide, triacetate] (H-AGCK[dA]FF[dW]KTFTSC-OH; disulfide 3-14), the GH with growth hormone (dose 10 ug/kg, control 254 ± 40) was 53 ± 6 ng/mL; with growth hormone (dose 100 ug/kg, control 526 ± 153) it was 117 ± 31 ng/mL; in the test on growth hormone (dose 1,000 ug/kg, control 312 ± 63), 34 ± 5 ng/mL. The “reducing secretion of growth hormone (summary in words)” value with growth hormone (summary of rat results) is on record as “effective agent for reducing secretion of growth hormone”. For the same compound, the Glucagon with glucagon (dose 10 ug/kg, control 92 ± 23, *not significant) came out at 78 ± 7 pg/mL; in the test with glucagon (dose 1,000 ug/kg, control 42 ± 3), 40 ± 6 pg/mL. Moreover, in the test on glucagon (summary of rat results), the “effect on glucagon levels (summary in words)” value is recorded as “without materially affecting glucagon levels”. Further, the Insulin was 215 ± 13 μU/ml with insulin (dose 10 ug/kg, control 321 ± 49); 68 ± 11 μU/ml with insulin (dose 100 ug/kg, control 339 ± 45); 42 ± 5 μU/ml in the test on insulin (dose 1,000 ug/kg, control 191 ± 11). Also, in the test with insulin (summary of rat results), the “reducing secretion of insulin (summary in words)” value was “effective agent for reducing secretion of growth hormone and insulin”.
